Data from patent publication US20080287537A1, “Composition, Particularly a Cosmetic Composition, Comprising ((Dialkylamino)Alkoxy) Ethanol Ester” (L'OREAL, priority 2004, published 2008).

What was measured:
SKNSH nerve cells = test: Inhibition of calcium flux (IC50Ca2+) on SKNSH nerve cells; assay type: cell-based; settings: Homo sapiens, SK-N-SH, concentration which inhibits release of Ca2+ by 50%
Text: (§1) In order for a substance to be recognized as a calcium-channel inhibitor, it must be able to reduce the intracellular calcium concentration or reduce the binding of calcium to intracellular proteins, such as, for example, calmodulin, such as is described in particular by Galizzi, J. P. et al., J. Biol. Chem., 1987, 262 p. 6947; by Y. Okamiya et al., Eur. J. Pharmacol., 1991, 205, p. 49; by J. A. Wagner et al., J. Neurosci., 1988, 8, p. 3354; by H. R. Lee et al., Life Sci., 1984, 35, p. 721; by Schoemaker H. and Lauger S., Eur. J. Pharmacol., 1985, 111, p. 273 or by I. J. Reynolds et al., J. Pharmacol. Exp. Ther., 1986, 237, p. 731.
(§2) The Applicant determined the IC50Ca2+ for inhibition of calcium flux of three compounds according to the invention using the protocol shown in these documents. IC50Ca2+ represents the concentration which inhibits release of Ca^2+ by 50%.

[1] = system: cells resulting from HFDa skin fibroblasts; test: Inhibition of calcium flux (IC50Ca2+) on cells from HFDa skin fibroblasts; assay type: cell-based; settings: Skin fibroblast, concentration which inhibits release of Ca2+ by 50%
Text: as §1, §2

[2] = system: Ca2+ channel (L, verapamil site); test: Competitive inhibition of [3H]-(-)-D888 binding to L-type calcium channels, rat cerebral cortex homogenates; settings: 1 μM in DMSO; [3H]-(-)-D888 0.5 nM; 60 min/22° C.
Text: The experimental conditions are as follows:
D888, which is [^3H]-(−)-desmethoxyverapamil, acts as radiolabelled specific ligand and D600, which is (±)-methoxyverapamil hydrochloride, acts as reference molecule.
The specific binding of a ligand (labelled D888) to the receptors (L-type calcium channels, verapamil site) is defined as the difference between the total binding and the non-specific binding determined in the presence of an excess of cold (nonradioactive) ligand. The results are expressed as percentage of inhibition of the specific binding of the control in the presence of the compound tested.

[3] = system: human striated muscle cells innervated with explants of rat embryo spinal ganglia and spinal cord; test: Nerve/muscle coculture model, contractions of muscle fibres; assay type: cell-based; settings: earlier demonstration by the Applicant Company, concentration not given
Procedure: The mixture of compounds of Example 2 was tested on a model of nerve/muscle coculture which makes it possible to recreate a motor arc by innervating human striated muscle cells with explants of rat embryo spinal ganglia and spinal cord.
Human muscle cells, resulting from samples of striated muscles from a healthy donor, are inoculated in wells with a cross section of 1.8 cm^2 (24-well culture dishes). After culturing for 10 days, these cells form a monolayer and fuse. At this stage, spinal cord explants from rat embryos aged 13 days comprising the spinal ganglia are deposited on the culture.
The growth of the neurites is visible outside the spinal cord explant after culturing for one day. The first contractions of the muscle fibres are observed after coculturing for 5 to 6 days and, after 3 weeks, all the muscle fibres in the vicinity of the explants are contracting.
The cocultures are used after 21 days, when the muscle fibres are striated and have mature differentiated neuromuscular junctions.
A muscle fibre having regular contractions (at least 60 contractions per minute) is then selected from three different culture wells and the number of contractions is counted over 30 seconds. […] At the end of incubation, the number of contractions is again counted over 30 seconds. […]

[4] = Antiwrinkle activity in vivo; settings: earlier demonstration, no details

SMILES	IC50 (SKNSH nerve cells) [µM]	IC50 [1] [µM]	percentage of inhibition of the specific binding of the control [2] [%]	contractions of the muscle fibres [3]	antiwrinkle activity [4]
CCCCCCCCCC(=O)OCCOCCN(CC)CC [((Diethylamino)ethoxy)ethyl decanoate]	26				
CCCCCCCCCCCC(=O)OCCOCCN(CC)CC [((Diethylamino)ethoxy)ethyl laurate, ((diethylamino)ethoxy)ethyl laurate]	11	13	31		
CCCCCCCCCCCCCCCC(=O)OCCOCCN(CC)CC [((Diethylamino)ethoxy)ethyl palmitate]	24	14			
CCCCCCCCCCCCCCCCCC(=O)OCCOCCN(CC)CC [((Diethylamino)ethoxy)ethyl stearate]	37				
CN1C(=O)CN=C(c2ccccc2)c2cc(Cl)ccc21 [diazepam]				inhibited the contractions of the muscle fibres	demonstrated in vivo
